The values that follow come from ChEMBL document CHEMBL5344410, “Design, development and evaluation of a prodrug-type TrkA-selective inhibitor with antinociceptive effects in vivo” (Eur J Med Chem, 2023).

Structures are written as SMILES. Active and inactive are the calls of the source. The calls are words filed in the database; no cut-off is given here.

The target of series [1] is NT-3 growth factor receptor (Homo sapiens, UniProt Q16288). Put plainly: Inhibition of TRKC (unknown origin) using Kinase substrate 22 pre-incubated with compound for 10 mins followed by substrate and ATP addition measured after 30 mins by mobility shift assay based caliper reader analysis.
The target of series [2] is BDNF/NT-3 growth factors receptor (Homo sapiens, UniProt Q16620). Description: Inhibition of TRKB (unknown origin) using Kinase substrate 22 pre-incubated with compound for 10 mins followed by substrate and ATP addition measured after 30 mins by mobility shift assay based caliper reader analysis.
Series [3] deals with T1, High affinity nerve growth factor receptor (Homo sapiens, UniProt P04629). Description: Inhibition of TRKA (unknown origin) using Kinase substrate 22 pre-incubated with compound for 10 mins followed by substrate and ATP addition measured after 30 mins by mobility shift assay based caliper reader analysis.
Target sequence in this assay (P04629 whole entry): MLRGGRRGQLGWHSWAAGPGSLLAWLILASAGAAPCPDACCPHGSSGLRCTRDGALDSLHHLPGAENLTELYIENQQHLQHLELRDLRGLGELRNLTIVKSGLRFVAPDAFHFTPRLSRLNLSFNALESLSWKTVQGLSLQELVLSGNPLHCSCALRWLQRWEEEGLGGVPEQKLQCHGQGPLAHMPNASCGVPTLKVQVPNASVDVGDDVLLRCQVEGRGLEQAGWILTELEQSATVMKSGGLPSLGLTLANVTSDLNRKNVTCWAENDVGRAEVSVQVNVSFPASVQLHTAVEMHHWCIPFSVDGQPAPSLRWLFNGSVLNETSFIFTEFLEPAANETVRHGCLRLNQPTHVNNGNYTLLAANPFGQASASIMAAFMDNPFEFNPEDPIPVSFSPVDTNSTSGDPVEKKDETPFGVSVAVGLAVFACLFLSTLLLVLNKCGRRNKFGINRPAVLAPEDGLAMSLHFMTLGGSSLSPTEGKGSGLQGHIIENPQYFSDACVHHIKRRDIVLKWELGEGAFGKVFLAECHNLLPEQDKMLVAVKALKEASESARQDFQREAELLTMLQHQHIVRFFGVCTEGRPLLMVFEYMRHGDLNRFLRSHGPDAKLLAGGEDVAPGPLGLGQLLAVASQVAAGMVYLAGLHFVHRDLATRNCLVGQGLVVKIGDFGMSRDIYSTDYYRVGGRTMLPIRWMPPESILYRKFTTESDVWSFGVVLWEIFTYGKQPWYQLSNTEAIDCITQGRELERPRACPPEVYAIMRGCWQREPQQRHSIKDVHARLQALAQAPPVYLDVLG
Series [4] deals with Mus musculus. Description: Antinociceptive activity in Kunming mouse assessed as reduction in nociceptive response at 40 mg/kg,IG administration and measured after 1 hr by hot plate test. The format is functional. The arrangement: scale not given: the % may be the effect or the level left.
Series [5] is described as follows: Drug metabolism in mouse hepatocyte assessed as 5-(3-(1-Methyl-1H-pyrazol-3-y1)-4-(trifluoromethyl)benzamido)-6-phenybridirt-3-yldihydrogen phosphate metabolite formation at 2 uM incubated for 30 mins by LC-MS/MS analysis. The format is ADME, cell-based. The following applies: hepatocytes, 0.5 h.
A short description of series [6]: Drug metabolism in mouse hepatocyte assessed as 5-(3-(1-Methy1-1H-pyrazol-3-y1)-4-(trifluoromethyl)benzamido)-6-phenylnicotinic acid metabolite formation at 2 uM incubated for 30 mins by LC-MS/MS analysis. The following applies: hepatocytes, 0.5 h. The format is ADME, cell-based.
Series [7] is described as follows: Drug metabolism in mouse hepatocyte assessed as N-(5-Hydroxy-2-phenylpyridin-3-y1)-3-(1-methyl-1H-pyrazol-3-y1)-4-(trifluoromethyl) benzamide metabolite formation at 2 uM incubated for 30 mins by LC-MS/MS analysis. The note with it: hepatocytes, 0.5 h. It counts as ADME, cell-based.
Series [8] deals with Mus musculus. Put plainly: Antinociceptive activity in ATP-induced Kunming mouse assessed as reduction in nociceptive response at 40 mg/kg,IG administration and measured after 1 hr by hot plate test. It counts as functional, organism-based.
The subject of series [9] is Mus musculus. Description: Antinociceptive activity in Kunming mouse assessed as reduction in nociceptive response at 40 mg/kg,IG administration and measured for 1 to 6 hrs by hot plate test. It counts as functional, organism-based. The following applies: time 1-6 hrs.
For series [10], the system named is Mus musculus. Put plainly: Antinociceptive activity in Kunming mouse assessed as reduction in nociceptive response by measuring effective dose at IG administration measured after 3 hr by hot plate test. It counts as functional. The note with it: po.
The test system of series [11] is Mus musculus. Put plainly: Antinociceptive activity against formalin-induced pain in C57BL/6N mouse assessed as reduction in nociceptive response in phase I at IG administration for 1 hr followed by formalin challenge. The format is functional, organism-based.
The subject of series [12] is Mus musculus. Put plainly: Antinociceptive activity in Kunming mouse assessed as reduction in nociceptive response at 8 mg/kg,IG administrated with TRKA activator, Amitriptyline and measured at 3 hrs by hot plate test. The format is functional, organism-based.
Series [13] deals with Mus musculus. Put plainly: Antinociceptive activity in Kunming mouse assessed as reduction in nociceptive response at 15 mg/kg,IG administration and measured after 1 hr by hot plate test. The format is functional, organism-based.
Series [14] has as its system Mus musculus. Description: Antinociceptive activity in Kunming mouse assessed as reduction in nociceptive response at 40 mg/kg,IG administration and measured at 3 hrs by hot plate test. It counts as functional, organism-based.
Series [15] in a line: Drug metabolism in Kunming mouse blood assessed as 5-(3-(1-Methy1-1H-pyrazol3-yl)-4-(trifluoromethyl)benzamido)-6-phenylnicotinic acid metabolite formation at 15 mg/kg,IG administration measured after 1 hr by LC-MS/MS analysis. It counts as ADME, organism-based. The note with it: in vivo, po.
Series [16] in a line: Drug uptake in Kunming mouse blood at 15 mg/kg,IG administration measured after 30 mins by LC-MS/MS analysis. It counts as ADME, organism-based. The following applies: in vivo, po, 0.5 h.
Series [17] concerns Mus musculus. Put plainly: Antinociceptive activity against formalin-induced pain in C57BL/6N mouse assessed as reduction in nociceptive response in phase II at IG administration for 1 hr followed by formalin challenge. It counts as functional, organism-based.
Series [18] deals with T1, High affinity nerve growth factor receptor. Description: Inhibition of human 6-His tagged TRKA expressed in Sf9 insect cells incubated for 2 hrs in presence of ATP by LanthaScreen based FRET assay relative to control. The note with it: concentration not given here.
Target sequence in this assay (P04629 33-796 limits assumed): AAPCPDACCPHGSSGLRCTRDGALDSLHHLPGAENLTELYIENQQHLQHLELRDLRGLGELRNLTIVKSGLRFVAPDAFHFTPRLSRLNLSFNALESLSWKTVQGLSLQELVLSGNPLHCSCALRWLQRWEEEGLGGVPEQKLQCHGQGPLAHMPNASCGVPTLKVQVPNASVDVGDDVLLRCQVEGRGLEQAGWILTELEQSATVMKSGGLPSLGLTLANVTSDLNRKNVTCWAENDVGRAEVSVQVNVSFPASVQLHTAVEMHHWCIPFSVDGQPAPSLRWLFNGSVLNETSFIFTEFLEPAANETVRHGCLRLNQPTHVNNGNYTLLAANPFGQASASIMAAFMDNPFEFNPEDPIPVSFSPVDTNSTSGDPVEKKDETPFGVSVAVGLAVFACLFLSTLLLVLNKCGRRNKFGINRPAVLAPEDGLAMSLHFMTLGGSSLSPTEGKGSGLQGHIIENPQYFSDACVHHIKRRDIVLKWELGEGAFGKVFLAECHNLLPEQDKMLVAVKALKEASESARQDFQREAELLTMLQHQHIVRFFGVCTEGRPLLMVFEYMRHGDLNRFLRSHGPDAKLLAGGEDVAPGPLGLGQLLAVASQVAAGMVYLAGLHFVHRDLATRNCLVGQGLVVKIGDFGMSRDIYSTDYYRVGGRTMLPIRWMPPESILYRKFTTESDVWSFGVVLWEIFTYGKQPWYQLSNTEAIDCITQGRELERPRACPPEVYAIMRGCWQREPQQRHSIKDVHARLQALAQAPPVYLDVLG
Series [19] shares this target. Description: Inhibition of human 6-His tagged TRKA expressed in Sf9 insect cells incubated for 2 hrs in presence of ATP by LanthaScreen based FRET assay.
Target sequence in this assay (P04629 whole entry): as the sequence (P04629 whole entry) above
Series [20] concerns Mus musculus. Description: Antinociceptive activity in Kunming mouse assessed as reduction in nociceptive response at 100 mg/kg,IG administration and measured for 1 to 6 hrs by hot plate test. It counts as functional, organism-based. The note with it: time 1-6 hrs.

BDNF/NT-3 growth factors receptor, sequence (Q16620 whole entry): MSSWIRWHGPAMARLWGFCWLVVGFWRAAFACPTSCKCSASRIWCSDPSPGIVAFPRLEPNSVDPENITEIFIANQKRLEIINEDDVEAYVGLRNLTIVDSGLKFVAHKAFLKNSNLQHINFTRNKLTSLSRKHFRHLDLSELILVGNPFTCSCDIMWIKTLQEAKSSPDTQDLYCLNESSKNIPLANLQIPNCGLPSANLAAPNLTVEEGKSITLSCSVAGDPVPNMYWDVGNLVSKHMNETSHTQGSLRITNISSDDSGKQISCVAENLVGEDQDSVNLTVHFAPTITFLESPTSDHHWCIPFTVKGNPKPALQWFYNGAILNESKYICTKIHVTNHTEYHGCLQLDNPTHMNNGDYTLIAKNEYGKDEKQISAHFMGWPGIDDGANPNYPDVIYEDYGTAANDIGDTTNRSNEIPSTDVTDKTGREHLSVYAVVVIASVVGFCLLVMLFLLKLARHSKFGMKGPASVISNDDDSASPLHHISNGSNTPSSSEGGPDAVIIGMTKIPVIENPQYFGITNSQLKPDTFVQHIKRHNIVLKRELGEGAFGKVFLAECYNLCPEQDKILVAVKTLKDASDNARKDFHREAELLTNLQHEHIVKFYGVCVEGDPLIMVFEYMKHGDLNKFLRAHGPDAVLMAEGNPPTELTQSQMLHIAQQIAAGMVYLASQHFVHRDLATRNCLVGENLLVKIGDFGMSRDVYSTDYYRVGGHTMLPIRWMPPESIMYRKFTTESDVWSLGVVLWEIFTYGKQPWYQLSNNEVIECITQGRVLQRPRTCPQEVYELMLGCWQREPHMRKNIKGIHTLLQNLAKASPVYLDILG
NT-3 growth factor receptor, sequence (Q16288 whole entry): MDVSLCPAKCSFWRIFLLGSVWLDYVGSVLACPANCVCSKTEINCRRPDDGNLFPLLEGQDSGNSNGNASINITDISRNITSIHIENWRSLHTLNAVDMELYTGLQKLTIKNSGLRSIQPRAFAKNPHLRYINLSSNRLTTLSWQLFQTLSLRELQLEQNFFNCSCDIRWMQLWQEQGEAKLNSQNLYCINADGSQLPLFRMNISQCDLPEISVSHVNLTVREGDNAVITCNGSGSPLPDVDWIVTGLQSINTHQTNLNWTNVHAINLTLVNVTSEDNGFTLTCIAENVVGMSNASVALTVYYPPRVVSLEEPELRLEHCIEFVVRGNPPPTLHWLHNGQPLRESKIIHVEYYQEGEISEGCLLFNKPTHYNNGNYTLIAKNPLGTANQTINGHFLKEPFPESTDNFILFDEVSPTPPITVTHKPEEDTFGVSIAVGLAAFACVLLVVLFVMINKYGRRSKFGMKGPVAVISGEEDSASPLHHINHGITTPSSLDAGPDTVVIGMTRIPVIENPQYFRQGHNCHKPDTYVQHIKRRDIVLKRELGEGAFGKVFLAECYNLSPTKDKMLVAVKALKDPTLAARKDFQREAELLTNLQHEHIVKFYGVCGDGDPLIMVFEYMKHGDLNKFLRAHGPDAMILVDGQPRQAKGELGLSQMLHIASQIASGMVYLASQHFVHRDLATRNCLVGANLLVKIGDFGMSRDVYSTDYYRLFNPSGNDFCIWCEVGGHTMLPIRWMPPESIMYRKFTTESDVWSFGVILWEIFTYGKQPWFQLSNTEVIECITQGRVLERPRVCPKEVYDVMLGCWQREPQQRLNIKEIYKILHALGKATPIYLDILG

Take `Cn1ccc(-c2cc(C(=O)Nc3cc(OP(=O)(O)O)cnc3-c3ccccc3)ccc2C(F)(F)F)n1`: the IC50 in series [1] was greater than 500000 nM; in [2] it was greater than 500000 nM; in series [3] it was 798 nM.
For the compound `COC(=O)[C@H](C)NP(=O)(Oc1ccccc1)Oc1cnc(-c2ccccc2)c(NC(=O)c2ccc(C(F)(F)F)c(-c3ccn(C)n3)c2)c1` (some centres undefined), the Activity with Mus musculus [4] stood at 20%. Further, the figures for the Drug metabolism result in series [5], in series [6] and in series [7] were “Metabolite_Notdetected”, “Metabolite_Detected” and “Metabolite_Detected”, respectively. The result in the series on Mus musculus [8] was inactive. The result in the series with Mus musculus [9] was Active.
With `CC(=O)OCOC(=O)c1cnc(-c2ccccc2)c(NC(=O)c2ccc(C(F)(F)F)c(-c3ccn(C)n3)c2)c1`, the figures for the Activity in the series on Mus musculus [4], with Mus musculus [11] and in the series on Mus musculus [17] were 20%, “Dose-Dependent Effect” and “Dose-Dependent Effect”, respectively. The ED50 in the series on Mus musculus [10] is 7.84 mg/kg. For the same compound, the Drug metabolism entry in series [5] is recorded as “Metabolite_Notdetected”; in series [6] it was “Metabolite_Detected”; in series [7], “Metabolite_Detected”; in [15], “Metabolite_Detected”. In addition, the result with Mus musculus [12] and with Mus musculus [8] was inactive. For the same compound, the result in the series with Mus musculus [13] and in the series with Mus musculus [14] was Active. Moreover, in series [16], the Drug uptake entry is listed as “Not Active”.
`CC(=O)NCc1ncc(NC(=O)c2ccc(C(F)(F)F)c(-c3cn(C)cn3)c2)c(-c2ccccc2)n1`: the IC50 is 760 nM in series [1] and 4 nM in series [3].
On to `Cn1ccc(-c2cc(C(=O)Nc3cc(C(=O)O)cnc3-c3ccccc3)ccc2C(F)(F)F)n1`, for which the IC50 is 20200 nM in series [1], 190000 nM in series [2] and 22.4 nM in series [3].
For `Cc1ncc(-c2ccccc2)c(NC(=O)NC2c3ccccc3-c3ccccc32)n1`, the inhibition in series [18] is greater than 70%. The IC50 in series [1] is 25000 nM; in series [2], greater than 81000 nM; in [3], 99 nM; in series [19], 99 nM.
For the compound `CC(C)Cc1ccc(C(C)C(=O)O)cc1` (centres undefined), in the series on Mus musculus [20], the outcome was Active.
Regarding `Cn1ccc(-c2cc(C(=O)Nc3cc(O)cnc3-c3ccccc3)ccc2C(F)(F)F)n1`, the IC50 is greater than 500000 nM in [1], greater than 500000 nM in [2] and 70.4 nM in series [3].
Consider `CCOc1nn(-c2ccccc2)c(NC(=O)N[C@H]2CN(CCOC)C[C@@H]2c2ccc(F)c(F)c2)c1C`, for which the IC50 in series [1] is 2480 nM; in series [2], 1300 nM; in [3], 2.7 nM.
